{"source": "ChEMBL document CHEMBL5365552", "about": "“Tryptamines and Mental Health: Activating the 5-HT Receptor for Therapeutic Potential” (ACS Med Chem Lett, 2023)", "format_in_all_cases": "ADME, organism-based", "key": {"[1]": {"test": "Prodrug conversion in rat assessed as 4-OH-DiPT formation by measuring Cmax at 2 mg/kg, iv measured for 15 to 360 mins by LCMS analysis", "design": "time upper 360 min, dose 2 mg/kg, time lower 15 min, route iv", "details": "in vivo"}, "[2]": {"test": "Prodrug conversion in rat assessed as 4-OH-DiPT formation by measuring Tmax at 2 mg/kg, sc measured for 15 to 360 mins by LCMS analysis", "details": "in vivo, time 15-360 min"}, "[3]": {"test": "Prodrug conversion in rat assessed as 4-OH-DiPT formation by measuring Cmax at 2 mg/kg, sc measured for 15 to 360 mins by LCMS analysis", "design": "time upper 360 min, time lower 15 min, dose 2 mg/kg, route sc", "details": "in vivo"}, "[4]": {"test": "Prodrug conversion in rat assessed as 4-OH-DiPT formation by measuring bioavailability at 2 mg/kg, sc measured for 15 to 360 mins by LCMS analysis", "details": "in vivo, time 15-360 min"}, "[5]": {"test": "Prodrug conversion in rat assessed as 4-OH-DiPT formation by measuring AUC at 2 mg/kg, sc measured for 15 to 360 mins by LCMS analysis", "design": "dose 2 mg/kg, time upper 360 min, time lower 15 min, route sc", "details": "in vivo"}, "[6]": {"test": "Prodrug conversion in rat assessed as 4-OH-DiPT formation by measuring AUC at 2 mg/kg, iv measured for 15 to 360 mins by LCMS analysis", "design": "dose 2 mg/kg, time 15-360 min, route iv", "details": "in vivo"}}}
{"smiles": "CC(C)N(CCc1c[nH]c2cccc(OC(=O)CCCC(=O)O)c12)C(C)C", "values": [{"measurement": "Cmax", "setting": "[1]", "result": 458, "unit": "ng/mL"}, {"measurement": "Tmax", "setting": "[2]", "result": 36.6, "unit": "min"}, {"measurement": "Cmax", "setting": "[3]", "result": 103, "unit": "ng/mL"}, {"measurement": "F", "setting": "[4]", "result": 89, "unit": "%"}, {"measurement": "AUC", "setting": "[5]", "result": 134, "unit": "ng·h/mL"}, {"measurement": "AUC", "setting": "[6]", "result": 152, "unit": "ng·h/mL"}]}
